Experimental data: ChEMBL document CHEMBL1142214, “Synergistic interaction between phenothiazines and antimicrobial agents against Burkholderia pseudomallei” (2007)
In brackets after ≈: the same amount, converted by molar mass.

Tests used:
Assay type in all cases: functional
[1] = test system: Burkholderia pseudomallei; assay: Antimicrobial activity against Burkholderia pseudomallei KHW in presence of 250 uM chlorpromazine
[2] = test system: Burkholderia pseudomallei; assay: Antimicrobial activity against Burkholderia pseudomallei KHW in presence of 1000 uM omeprazole
[3] = test system: Burkholderia pseudomallei; assay: Antimicrobial activity against Burkholderia pseudomallei KHW in presence of 3.9 uM chlorpromazine
[4] = test system: Burkholderia pseudomallei; assay: Antimicrobial activity against Burkholderia pseudomallei KHW in presence of 250 uM promazine
[5] = test system: Burkholderia pseudomallei; assay: Antimicrobial activity against Burkholderia pseudomallei KHW in presence of 62.5 uM chlorpromazine
[6] = test system: Burkholderia pseudomallei; assay: Antimicrobial activity against Burkholderia pseudomallei KHW in presence of 7.8 uM promazine
[7] = test system: Burkholderia pseudomallei; assay: Antimicrobial activity against Burkholderia pseudomallei KHW in presence of 500 uM omeprazole
[8] = test system: Burkholderia pseudomallei; assay: Antimicrobial activity against Burkholderia pseudomallei KHW in presence of 31.3 uM promazine
[9] = test system: Burkholderia pseudomallei; assay: Antimicrobial activity against Burkholderia pseudomallei KHW in presence of 500 uM prochlorperazine
[10] = test system: Burkholderia pseudomallei; assay: Antimicrobial activity against Burkholderia pseudomallei KHW in presence of 15.6 uM prochlorperazine
[11] = test system: Burkholderia pseudomallei; assay: Antimicrobial activity against Burkholderia pseudomallei KHW in presence of 15.6 uM promazine
[12] = test system: Burkholderia pseudomallei; assay: Antimicrobial activity against Burkholderia pseudomallei KHW in presence of 500 uM promazine
[13] = test system: Burkholderia pseudomallei; assay: Antimicrobial activity against Burkholderia pseudomallei KHW in presence of 125 uM promazine
[14] = test system: Burkholderia pseudomallei; assay: Antimicrobial activity against Burkholderia pseudomallei KHW in presence of 3.9 uM omeprazole
[15] = test system: Burkholderia pseudomallei; assay: Antimicrobial activity against Burkholderia pseudomallei KHW in presence of 3.9 uM prochlorperazine
[16] = test system: Burkholderia pseudomallei; assay: Antimicrobial activity against Burkholderia pseudomallei KHW in presence of 62.5 uM prochlorperazine
[17] = test system: Burkholderia pseudomallei; assay: Antimicrobial activity against Burkholderia pseudomallei KHW in presence of 15.6 uM omeprazole
[18] = test system: Burkholderia pseudomallei; assay: Antimicrobial activity against Burkholderia pseudomallei KHW
[19] = test system: Burkholderia pseudomallei; assay: Antimicrobial activity against Burkholderia pseudomallei KHW in presence of 125 uM prochlorperazine
[20] = test system: Burkholderia pseudomallei; assay: Antimicrobial activity against Burkholderia pseudomallei KHW in presence of 31.3 uM prochlorperazine
[21] = test system: Burkholderia pseudomallei; assay: Antimicrobial activity against Burkholderia pseudomallei KHW in presence of 125 uM chlorpromazine
[22] = test system: Burkholderia pseudomallei; assay: Antimicrobial activity against Burkholderia pseudomallei KHW in presence of 62.5 uM omeprazole
[23] = test system: Burkholderia pseudomallei; assay: Antimicrobial activity against Burkholderia pseudomallei KHW in presence of 250 uM prochlorperazine
[24] = test system: Burkholderia pseudomallei; assay: Antimicrobial activity against Burkholderia pseudomallei KHW in presence of 1000 uM promazine
[25] = test system: Burkholderia pseudomallei; assay: Antimicrobial activity against Burkholderia pseudomallei KHW in presence of 500 uM chlorpromazine
[26] = test system: Burkholderia pseudomallei; assay: Antimicrobial activity against Burkholderia pseudomallei KHW in presence of 7.8 uM chlorpromazine
[27] = test system: Burkholderia pseudomallei; assay: Antimicrobial activity against Burkholderia pseudomallei KHW in presence of 250 uM omeprazole
[28] = test system: Burkholderia pseudomallei; assay: Antimicrobial activity against Burkholderia pseudomallei KHW in presence of 1000 uM prochlorperazine
[29] = test system: Burkholderia pseudomallei; assay: Antimicrobial activity against Burkholderia pseudomallei KHW in presence of 125 uM omeprazole
[30] = test system: Burkholderia pseudomallei; assay: Antimicrobial activity against Burkholderia pseudomallei KHW in presence of 7.8 uM omeprazole
[31] = test system: Burkholderia pseudomallei; assay: Antimicrobial activity against Burkholderia pseudomallei KHW in presence of 31.3 uM chlorpromazine
[32] = test system: Burkholderia pseudomallei; assay: Antimicrobial activity against Burkholderia pseudomallei KHW in presence of 31.3 uM omeprazole
[33] = test system: Burkholderia pseudomallei; assay: Antimicrobial activity against Burkholderia pseudomallei KHW in presence of 7.8 uM prochlorperazine
[34] = test system: Burkholderia pseudomallei; assay: Antimicrobial activity against Burkholderia pseudomallei KHW in presence of 15.6 uM chlorpromazine
[35] = test system: Burkholderia pseudomallei; assay: Antimicrobial activity against Burkholderia pseudomallei KHW in presence of 3.9 uM promazine
[36] = test system: Burkholderia pseudomallei; assay: Antimicrobial activity against Burkholderia pseudomallei KHW in presence of 1000 uM chlorpromazine
[37] = test system: Burkholderia pseudomallei; assay: Antimicrobial activity against Burkholderia pseudomallei KHW in presence of 62.5 uM promazine

## CC[C@H]1OC(=O)[C@H](C)[C@@H](O[C@H]2C[C@@](C)(OC)[C@@H](O)[C@H](C)O2)[C@H](C)[C@@H](O[C@@H]2O[C@H](C)C[C@H](N(C)C)[C@H]2O)[C@](C)(O)C[C@@H](C)CN(C)[C@H](C)[C@@H](O)[C@]1(C)O [AZITHROMYCIN]
[1]
  MIC: 16 µg/mL
[2]
  MIC: 16 µg/mL
[3]
  MIC: 32 µg/mL
[4]
  MIC: 32 µg/mL
[5]
  MIC: 32 µg/mL
[6]
  MIC: 32 µg/mL
[7]
  MIC: 16 µg/mL
[8]
  MIC: 32 µg/mL
[9]
  MIC: < 0.25 µg/mL
[10]
  MIC: 32 µg/mL
[11]
  MIC: 32 µg/mL
[12]
  MIC: 16 µg/mL
[13]
  MIC: 32 µg/mL
[14]
  MIC: 32 µg/mL
[15]
  MIC: 32 µg/mL
[16]
  MIC: 32 µg/mL
[17]
  MIC: 32 µg/mL
[18]
  MIC: 32 µg/mL (≈ 42.7 µM)
[19]
  MIC: 16 µg/mL
[20]
  MIC: 32 µg/mL
[21]
  MIC: 16 µg/mL
[22]
  MIC: 32 µg/mL
[23]
  MIC: < 0.25 µg/mL
[24]
  MIC: < 0.25 µg/mL
[25]
  MIC: 8 µg/mL
[26]
  MIC: 32 µg/mL
[27]
  MIC: 32 µg/mL
[28]
  MIC: < 0.25 µg/mL
[29]
  MIC: 32 µg/mL
[30]
  MIC: 32 µg/mL
[31]
  MIC: 32 µg/mL
[32]
  MIC: 32 µg/mL
[33]
  MIC: 32 µg/mL
[34]
  MIC: 32 µg/mL
[35]
  MIC: 32 µg/mL
[36]
  MIC: < 0.25 µg/mL
[37]
  MIC: 32 µg/mL

## CN[C@@H]1[C@H](O[C@H]2[C@H](O[C@H]3[C@H](O)[C@@H](O)[C@H](N=C(N)N)[C@@H](O)[C@@H]3N=C(N)N)O[C@@H](C)[C@]2(O)C=O)O[C@@H](CO)[C@H](O)[C@H]1O [STREPTOMYCIN]
[1]
  MIC: 1020 µg/mL
[2]
  MIC: < 0.25 µg/mL
[3]
  MIC: 1020 µg/mL
[4]
  MIC: 1020 µg/mL
[5]
  MIC: 1020 µg/mL
[6]
  MIC: 1020 µg/mL
[7]
  MIC: 1020 µg/mL
[8]
  MIC: 1020 µg/mL
[9]
  MIC: 256 µg/mL
[10]
  MIC: 1020 µg/mL
[11]
  MIC: 1020 µg/mL
[12]
  MIC: 516 µg/mL
[13]
  MIC: 1020 µg/mL
[14]
  MIC: 1020 µg/mL
[15]
  MIC: 1020 µg/mL
[16]
  MIC: 1020 µg/mL
[17]
  MIC: 1020 µg/mL
[18]
  MIC: 1020 µg/mL (≈ 1760 µM)
[19]
  MIC: 1020 µg/mL
[20]
  MIC: 1020 µg/mL
[21]
  MIC: 1020 µg/mL
[22]
  MIC: 1020 µg/mL
[23]
  MIC: 512 µg/mL
[24]
  MIC: 0.5 µg/mL
[25]
  MIC: < 0.25 µg/mL
[26]
  MIC: 1020 µg/mL
[27]
  MIC: 1020 µg/mL
[28]
  MIC: 256 µg/mL
[29]
  MIC: 1020 µg/mL
[30]
  MIC: 1020 µg/mL
[31]
  MIC: 1020 µg/mL
[32]
  MIC: 1020 µg/mL
[33]
  MIC: 1020 µg/mL
[34]
  MIC: 1020 µg/mL
[35]
  MIC: 1020 µg/mL
[36]
  MIC: < 0.25 µg/mL
[37]
  MIC: 1020 µg/mL

## CO[C@H]1C[C@H](O[C@H]2[C@H](C)[C@@H](O[C@@H]3O[C@H](C)C[C@H](N(C)C)[C@H]3O)[C@@H](C)C[C@@]3(CO3)C(=O)[C@H](C)[C@@H](O)[C@@H](C)[C@@H](C)OC(=O)[C@@H]2C)O[C@@H](C)[C@@H]1O [OLEANDOMYCIN]
[1]
  MIC: 256 µg/mL
[2]
  MIC: < 0.25 µg/mL
[3]
  MIC: > 2000 µg/mL
[4]
  MIC: > 2000 µg/mL
[5]
  MIC: 1020 µg/mL
[6]
  MIC: > 2000 µg/mL
[7]
  MIC: > 2000 µg/mL
[8]
  MIC: > 2000 µg/mL
[9]
  MIC: 64 µg/mL
[10]
  MIC: 512 µg/mL
[11]
  MIC: > 2000 µg/mL
[12]
  MIC: 256 µg/mL
[13]
  MIC: > 2000 µg/mL
[14]
  MIC: > 2000 µg/mL
[15]
  MIC: > 2000 µg/mL
[16]
  MIC: 256 µg/mL
[17]
  MIC: > 2000 µg/mL
[18]
  MIC: > 2000 µg/mL
[19]
  MIC: 256 µg/mL
[20]
  MIC: 512 µg/mL
[21]
  MIC: 512 µg/mL
[22]
  MIC: > 2000 µg/mL
[23]
  MIC: 128 µg/mL
[24]
  MIC: 0.5 µg/mL
[25]
  MIC: 128 µg/mL
[26]
  MIC: > 2000 µg/mL
[27]
  MIC: > 2000 µg/mL
[28]
  MIC: 64 µg/mL
[29]
  MIC: > 2000 µg/mL
[30]
  MIC: > 2000 µg/mL
[31]
  MIC: > 2000 µg/mL
[32]
  MIC: > 2000 µg/mL
[33]
  MIC: > 2000 µg/mL
[34]
  MIC: > 2000 µg/mL
[35]
  MIC: > 2000 µg/mL
[36]
  MIC: < 0.25 µg/mL
[37]
  MIC: > 2000 µg/mL

## CN[C@@H]1[C@H](O)[C@H](NC)[C@H]2O[C@@]3(O)C(=O)C[C@@H](C)O[C@H]3O[C@@H]2[C@H]1O [SPECTINOMYCIN]
[1]
  MIC: 128 µg/mL
[2]
  MIC: 32 µg/mL
[3]
  MIC: 256 µg/mL
[5]
  MIC: 256 µg/mL
[6]
  MIC: 256 µg/mL
[8]
  MIC: 256 µg/mL
[9]
  MIC: < 0.25 µg/mL
[10]
  MIC: 256 µg/mL
[11]
  MIC: 256 µg/mL
[13]
  MIC: 256 µg/mL
[14]
  MIC: 256 µg/mL
[15]
  MIC: 256 µg/mL
[16]
  MIC: 128 µg/mL
[17]
  MIC: 256 µg/mL
[18]
  MIC: 256 µg/mL (≈ 770 µM)
[19]
  MIC: 32 µg/mL
[20]
  MIC: 256 µg/mL
[21]
  MIC: 256 µg/mL
[22]
  MIC: 256 µg/mL
[23]
  MIC: 32 µg/mL
[24]
  MIC: < 0.25 µg/mL
[25]
  MIC: 32 µg/mL
[26]
  MIC: 256 µg/mL
[28]
  MIC: < 0.25 µg/mL
[29]
  MIC: 256 µg/mL
[30]
  MIC: 256 µg/mL
[31]
  MIC: 256 µg/mL
[32]
  MIC: 256 µg/mL
[33]
  MIC: 256 µg/mL
[34]
  MIC: 256 µg/mL
[35]
  MIC: 256 µg/mL
[36]
  MIC: < 0.25 µg/mL
[37]
  MIC: 256 µg/mL

## C[C@H]1COc2c(N3CCN(C)CC3)c(F)cc3c(=O)c(C(=O)O)cn1c23.C[C@H]1COc2c(N3CCN(C)CC3)c(F)cc3c(=O)c(C(=O)O)cn1c23.O [LEVOFLOXACIN]
[3]
  MIC: 2 µg/mL
[4]
  MIC: 2 µg/mL
[5]
  MIC: 2 µg/mL
[6]
  MIC: 2 µg/mL
[7]
  MIC: 2 µg/mL
[8]
  MIC: 2 µg/mL
[9]
  MIC: < 0.25 µg/mL
[10]
  MIC: 2 µg/mL
[11]
  MIC: 2 µg/mL
[13]
  MIC: 2 µg/mL
[14]
  MIC: 2 µg/mL
[15]
  MIC: 2 µg/mL
[16]
  MIC: 2 µg/mL
[17]
  MIC: 2 µg/mL
[18]
  MIC: 2 µg/mL
[19]
  MIC: 2 µg/mL
[20]
  MIC: 2 µg/mL
[21]
  MIC: 2 µg/mL
[22]
  MIC: 2 µg/mL
[23]
  MIC: 2 µg/mL
[24]
  MIC: < 0.25 µg/mL
[25]
  MIC: < 0.25 µg/mL
[26]
  MIC: 2 µg/mL
[27]
  MIC: 2 µg/mL
[28]
  MIC: < 0.25 µg/mL
[29]
  MIC: 2 µg/mL
[30]
  MIC: 2 µg/mL
[31]
  MIC: 2 µg/mL
[32]
  MIC: 2 µg/mL
[33]
  MIC: 2 µg/mL
[34]
  MIC: 2 µg/mL
[35]
  MIC: 2 µg/mL
[36]
  MIC: < 0.25 µg/mL
[37]
  MIC: 2 µg/mL
